Test results as given in the supplement of paper PMC10627819.

How the values were obtained:
B. subtilis 168 [1] = assay: fitness (endpoint OD595 vs no drug) (fraction); higher = more growth
In short: (§1)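 Bacterial fitness was scored as optical density at the stationary-phase transition relative to the robust mean of no-drug control wells. Scores are capped at 1. The growth data were OD595 readings every 30 min for 14 h at 37 °C, background-subtracted against the first reading, from 384-well plates inoculated at OD595 0.01 in TSB, LB Lennox or CY.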

S. aureus Newman [2] = assay: as above
In short: as §1

S. aureus DSM 20231 = assay: Bliss interaction score (quartile over a dose matrix) (fitness difference); higher = more antagonism (negative = synergy)
In short: (§2)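 The Bliss score was calculated by subtracting the expected fitness, the product of single-drug values, from the observed fitness. OD595 at entry into stationary phase, over the plate's robust no-drug mean and capped at 1, served as the fitness readout. Single-drug values were inferred from combination data, and scores are summarised by quartiles across technical, biological and donor/recipient replicates.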

S. pneumoniae D39V = assay: as above
In short: as §2

B. subtilis 168 [3] = assay: as above
In short: as §2

S. aureus Newman [4] = assay: as above
In short: as §2
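Throughout, for Bliss interaction score (quartile over a dose matrix): first quartile when negative (synergy) and third quartile when positive (antagonism).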

CC[C@H]1OC(=O)[C@H](C)[C@@H](O[C@H]2C[C@@](C)(OC)[C@@H](O)[C@H](C)O2)[C@H](C)[C@@H](O[C@@H]2O[C@H](C)C[C@H](N(C)C)[C@H]2O)[C@](C)(O)C[C@@H](C)CN(C)[C@H](C)[C@@H](O)[C@]1(C)O [Azithromycin] + CN(C)c1cc(NC(=O)CNC(C)(C)C)c(O)c2c1C[C@H]1C[C@H]3[C@H](N(C)C)C(O)=C(C(N)=O)C(=O)[C@@]3(O)C(O)=C1C2=O [Tigecycline]
fitness
Settings	partner 0.039 µg/mL	partner 0.078 µg/mL	partner 0.156 µg/mL
B. subtilis 168 [1], first compound 0.25 µg/mL	0.979	0.873	0.887
B. subtilis 168 [1], first compound 0.5 µg/mL	0.886	0.811	0.839
S. aureus Newman [2], first compound 0.125 µg/mL	0.892	0.908	0.855
S. aureus Newman [2], first compound 0.25 µg/mL	0.88	0.868	0.912
S. aureus Newman [2], first compound 0.5 µg/mL	0.641	0.666	0.622

fitness, B. subtilis 168 [1], one replicate
Settings	first compound 0.5 µg/mL	first compound 1 µg/mL	first compound 2 µg/mL
partner 0.125 µg/mL	0.894	0.947	0.614
partner 0.25 µg/mL	0.889	0.871	0.48
partner 0.5 µg/mL	0.941	0.826	0.332

Settings	Bliss interaction score
B. subtilis 168 [3]	0.0692
S. aureus DSM 20231	-0.0977
S. aureus Newman [4]	-0.0615
S. pneumoniae D39V	-0.0801

CC[C@H]1OC(=O)[C@H](C)[C@@H](O[C@H]2C[C@@](C)(OC)[C@@H](O)[C@H](C)O2)[C@H](C)[C@@H](O[C@@H]2O[C@H](C)C[C@H](N(C)C)[C@H]2O)[C@](C)(O)C[C@@H](C)CN(C)[C@H](C)[C@@H](O)[C@]1(C)O [Azithromycin] + CN[C@@H]1[C@H](O[C@H]2[C@H](O[C@H]3[C@H](O)[C@@H](O)[C@H](N=C(N)N)[C@@H](O)[C@@H]3N=C(N)N)O[C@@H](C)[C@]2(O)C=O)O[C@@H](CO)[C@H](O)[C@H]1O [Streptomycin]
fitness
Settings	first compound 0.125 µg/mL	first compound 0.25 µg/mL	first compound 0.5 µg/mL
B. subtilis 168 [1], partner 2 µg/mL	–	0.943	0.843
B. subtilis 168 [1], partner 4 µg/mL	–	0.807	0.739
S. aureus Newman [2], partner 1 µg/mL	0.881	0.849	–

Settings	Bliss interaction score
B. subtilis 168 [3]	0.206
S. aureus DSM 20231	0.108
S. aureus Newman [4]	0.102
S. pneumoniae D39V	-0.0455

CC[C@H]1OC(=O)[C@H](C)[C@@H](O[C@H]2C[C@@](C)(OC)[C@@H](O)[C@H](C)O2)[C@H](C)[C@@H](O[C@@H]2O[C@H](C)C[C@H](N(C)C)[C@H]2O)[C@](C)(O)C[C@@H](C)CN(C)[C@H](C)[C@@H](O)[C@]1(C)O [Azithromycin] + CO/N=C(\C(=O)N[C@@H]1C(=O)N2C(C(=O)O)=C(COC(N)=O)CS[C@H]12)c1ccco1 [Cefuroxime]
fitness, one replicate
Settings	partner 0.04875 µg/mL	partner 0.0975 µg/mL	partner 0.195 µg/mL	partner 1.562 µg/mL	partner 3.125 µg/mL	partner 6.25 µg/mL
B. subtilis 168 [1], first compound 0.25 µg/mL	0.867	0.81	–	0.293	0.262	0.222
B. subtilis 168 [1], first compound 0.5 µg/mL	–	–	–	0.242	0.146	0.0811
B. subtilis 168 [1], first compound 1 µg/mL	–	–	–	0.0319	0.0369	0.0154
B. subtilis 168 [1], first compound 2 µg/mL	0.0565	0.0607	0.0393	–	–	–
S. aureus Newman [2], first compound 0.125 µg/mL	0.967	0.894	0.876	–	–	–
S. aureus Newman [2], first compound 0.25 µg/mL	0.897	0.878	0.802	–	–	–
S. aureus Newman [2], first compound 0.5 µg/mL	0.653	0.612	0.547	–	–	–

fitness, B. subtilis 168 [1]
Settings	partner 0.04875 µg/mL	partner 0.0975 µg/mL	partner 0.195 µg/mL	partner 0.39 µg/mL	partner 0.78 µg/mL
first compound 0.25 µg/mL	–	–	0.556	0.353	0.305
first compound 0.5 µg/mL	0.708	0.609	–	0.35	0.312
first compound 1 µg/mL	0.463	0.361	0.215	0.171	0.16

Settings	Bliss interaction score
B. subtilis 168 [3]	0.0595
S. aureus DSM 20231	-0.24
S. aureus Newman [4]	0.0821
S. pneumoniae D39V	0.0571
